According to ChEMBL document CHEMBL1156331, “7-Phenylplatensimycin and 11-methyl-7-phenylplatensimycin: more potent analogs of platensimycin” (2010):
Converted amounts (≈) assume the structure as drawn.

Key:
Format in all cases: functional
Staphylococcus aureus [1] = test: Antimicrobial activity against vancomycin-insensitive Staphylococcus aureus isolate 9
Enterococcus faecalis [2] = test: Antimicrobial activity against vancomycin-resistant Enterococcus faecalis isolate 12
Enterococcus faecium [3] = test: Antimicrobial activity against vancomycin-resistant Enterococcus faecium isolate 14
Staphylococcus aureus [4] = test: Antimicrobial activity against methicillin-resistant Staphylococcus aureus isolate 6
Staphylococcus aureus [5] = test: Antimicrobial activity against methicillin-sensitive Staphylococcus aureus isolate 3
Staphylococcus aureus [6] = test: Antimicrobial activity against methicillin-resistant Staphylococcus aureus isolate 7
Staphylococcus aureus [7] = test: Antimicrobial activity against methicillin-sensitive Staphylococcus aureus isolate 4
Enterococcus faecalis [8] = test: Antimicrobial activity against vancomycin-sensitive Enterococcus faecalis isolate 11
Staphylococcus aureus [9] = test: Antimicrobial activity against methicillin-sensitive Staphylococcus aureus isolate 2
Staphylococcus aureus [10] = test: Antimicrobial activity against vancomycin-insensitive Staphylococcus aureus isolate 10
Staphylococcus aureus [11] = test: Antimicrobial activity against methicillin-resistant Staphylococcus aureus isolate 8
Staphylococcus aureus [12] = test: Antimicrobial activity against methicillin-resistant Staphylococcus aureus isolate 5
Enterococcus faecalis [13] = test: Antimicrobial activity against vancomycin-resistant Enterococcus faecalis isolate 13
Enterococcus faecium [14] = test: Antimicrobial activity against vancomycin-resistant Enterococcus faecium isolate 15
Staphylococcus aureus [15] = test: Antimicrobial activity against methicillin-sensitive Staphylococcus aureus isolate 1

Row | SMILES | MIC (Staphylococcus aureus [1]) | MIC (Enterococcus faecalis [2]) | MIC (Enterococcus faecium [3]) | MIC (Staphylococcus aureus [4]) | MIC (Staphylococcus aureus [5]) | MIC (Staphylococcus aureus [6]) | MIC (Staphylococcus aureus [7]) | MIC (Enterococcus faecalis [8]) | MIC (Staphylococcus aureus [9]) | MIC (Staphylococcus aureus [10]) | MIC (Staphylococcus aureus [11]) | MIC (Staphylococcus aureus [12]) | MIC (Enterococcus faecalis [13]) | MIC (Enterococcus faecium [14]) | MIC (Staphylococcus aureus [15])
1 | CC12CC34C=CC(=O)C(C)(CCC(=O)Nc5c(O)ccc(C(=O)O)c5O)C3C(O1)[C@@H](Cl)C2C4 (stereo partly drawn) | 8 µg/mL (≈ 16.8 µM) | 64 µg/mL (≈ 134 µM) | 8 µg/mL (≈ 16.8 µM) | 0.5 µg/mL (≈ 1.05 µM) | 8 µg/mL (≈ 16.8 µM) | 0.25 µg/mL (≈ 0.525 µM) | 0.5 µg/mL (≈ 1.05 µM) | 2 µg/mL (≈ 4.2 µM) | 8 µg/mL (≈ 16.8 µM) | 8 µg/mL (≈ 16.8 µM) | 4 µg/mL (≈ 8.4 µM) | 0.25 µg/mL (≈ 0.525 µM) | 64 µg/mL (≈ 134 µM) | 2 µg/mL (≈ 4.2 µM) | 1 µg/mL (≈ 2.1 µM)
2 | C[C@@H]1C2OC3(C)CC4(C=CC(=O)C(C)(CCC(=O)Nc5c(O)ccc(C(=O)O)c5O)C24)CC13 (stereo partly drawn) | 2 µg/mL (≈ 4.39 µM) | 32 µg/mL (≈ 70.3 µM) | 2 µg/mL (≈ 4.39 µM) | 0.5 µg/mL (≈ 1.1 µM) | 8 µg/mL (≈ 17.6 µM) | 0.5 µg/mL (≈ 1.1 µM) | < 0.25 µg/mL | 1 µg/mL (≈ 2.2 µM) | 1 µg/mL (≈ 2.2 µM) | 8 µg/mL (≈ 17.6 µM) | 1 µg/mL (≈ 2.2 µM) | 0.25 µg/mL (≈ 0.549 µM) | 64 µg/mL (≈ 141 µM) | 1 µg/mL (≈ 2.2 µM) | 0.25 µg/mL (≈ 0.549 µM)
3 | CC12CC34C=CC(=O)C(C)(CCC(=O)Nc5c(O)ccc(C(=O)O)c5O)C3C(O1)[C@@H](Br)C2C4 (stereo partly drawn) | 8 µg/mL (≈ 15.4 µM) | 128 µg/mL (≈ 246 µM) | 4 µg/mL (≈ 7.69 µM) | 2 µg/mL (≈ 3.84 µM) | 32 µg/mL (≈ 61.5 µM) | 1 µg/mL (≈ 1.92 µM) | 1 µg/mL (≈ 1.92 µM) | 4 µg/mL (≈ 7.69 µM) | 8 µg/mL (≈ 15.4 µM) | 16 µg/mL (≈ 30.7 µM) | 4 µg/mL (≈ 7.69 µM) | 1 µg/mL (≈ 1.92 µM) | > 128 µg/mL | 16 µg/mL (≈ 30.7 µM) | 1 µg/mL (≈ 1.92 µM)
4 | CC12CC34CC1CC(O2)C3C(C)(CCC(=O)Nc1c(O)ccc(C(=O)O)c1O)C(=O)C=C4c1ccccc1 (stereo not drawn) | 1 µg/mL (≈ 1.93 µM) | 8 µg/mL (≈ 15.5 µM) | 2 µg/mL (≈ 3.86 µM) | < 0.25 µg/mL | 2 µg/mL (≈ 3.86 µM) | < 0.25 µg/mL | < 0.25 µg/mL | ≤ 0.5 µg/mL | 0.5 µg/mL (≈ 0.966 µM) | 1 µg/mL (≈ 1.93 µM) | 0.5 µg/mL (≈ 0.966 µM) | < 0.25 µg/mL | 16 µg/mL (≈ 30.9 µM) | ≤ 0.5 µg/mL | 0.25 µg/mL (≈ 0.483 µM)
5 | CC1(CCC(=O)Nc2c(O)ccc(C(=O)O)c2O)C(=O)C=CC23CC4CC(OC4(c4ccccc4)C2)C31 (stereo not drawn) | 16 µg/mL (≈ 31.8 µM) | 16 µg/mL (≈ 31.8 µM) | 8 µg/mL (≈ 15.9 µM) | 2 µg/mL (≈ 3.97 µM) | 8 µg/mL (≈ 15.9 µM) | 2 µg/mL (≈ 3.97 µM) | 1 µg/mL (≈ 1.99 µM) | ≤ 0.5 µg/mL | 8 µg/mL (≈ 15.9 µM) | 16 µg/mL (≈ 31.8 µM) | 4 µg/mL (≈ 7.94 µM) | 1 µg/mL (≈ 1.99 µM) | 16 µg/mL (≈ 31.8 µM) | ≤ 0.5 µg/mL | 2 µg/mL (≈ 3.97 µM)
6 | CC12C[C@@]34C=CC(=O)[C@@](C)(CCC(=O)Nc5c(O)ccc(C(=O)O)c5O)C3[C@H](CC1C4)O2 (stereo partly drawn) [PLATENSIMYCIN] | 2 µg/mL (≈ 4.53 µM) | 8 µg/mL (≈ 18.1 µM) | ≤ 0.5 µg/mL | 0.25 µg/mL (≈ 0.566 µM) | 8 µg/mL (≈ 18.1 µM) | 0.25 µg/mL (≈ 0.566 µM) | < 0.25 µg/mL | ≤ 0.5 µg/mL | 2 µg/mL (≈ 4.53 µM) | 2 µg/mL (≈ 4.53 µM) | 1 µg/mL (≈ 2.27 µM) | 0.25 µg/mL (≈ 0.566 µM) | 8 µg/mL (≈ 18.1 µM) | ≤ 0.5 µg/mL | 1 µg/mL (≈ 2.27 µM)
7 | CN[C@H](CC(C)C)C(=O)N[C@H]1C(=O)N[C@@H](CC(N)=O)C(=O)N[C@H]2C(=O)N[C@H]3C(=O)N[C@H](C(=O)N[C@H](C(=O)O)c4cc(O)cc(O)c4-c4cc3ccc4O)[C@H](O)c3ccc(c(Cl)c3)Oc3cc2cc(c3O[C@@H]2O[C@H](CO)[C@@H](O)[C@H](O)[C@H]2O[C@H]2C[C@](C)(N)[C@H](O)[C@H](C)O2)Oc2ccc(cc2Cl)[C@H]1O [VANCOMYCIN] | – | – | > 128 µg/mL | – | – | – | – | 2 µg/mL (≈ 1.38 µM) | – | – | – | – | – | > 128 µg/mL | –
8 | CC1=CC(=O)C(C)(CCC(=O)Nc2c(O)ccc(C(=O)O)c2O)C2C3CC4CC12CC4(C)O3 (stereo not drawn) | 4 µg/mL (≈ 8.78 µM) | 8 µg/mL (≈ 17.6 µM) | 2 µg/mL (≈ 4.39 µM) | 0.5 µg/mL (≈ 1.1 µM) | 2 µg/mL (≈ 4.39 µM) | 0.25 µg/mL (≈ 0.549 µM) | 0.5 µg/mL (≈ 1.1 µM) | ≤ 0.5 µg/mL | 4 µg/mL (≈ 8.78 µM) | 4 µg/mL (≈ 8.78 µM) | 2 µg/mL (≈ 4.39 µM) | 1 µg/mL (≈ 2.2 µM) | 16 µg/mL (≈ 35.1 µM) | ≤ 0.5 µg/mL | 0.5 µg/mL (≈ 1.1 µM)
9 | Cc1onc(-c2ccccc2)c1C(=O)N[C@@H]1C(=O)N2[C@@H]1SC(C)(C)[C@@H]2C(=O)O [OXACILLIN] | > 32 µg/mL | – | – | > 32 µg/mL | < 0.25 µg/mL | > 32 µg/mL | < 0.25 µg/mL | – | < 0.25 µg/mL | > 32 µg/mL | > 32 µg/mL | > 32 µg/mL | – | – | < 0.25 µg/mL
10 | C[C@@H]1C2OC3(C)CC4(CC13)C(c1ccccc1)=CC(=O)C(C)(CCC(=O)Nc1c(O)ccc(C(=O)O)c1O)C24 (stereo partly drawn) | 1 µg/mL (≈ 1.88 µM) | 16 µg/mL (≈ 30.1 µM) | 2 µg/mL (≈ 3.76 µM) | < 0.25 µg/mL | 0.5 µg/mL (≈ 0.941 µM) | < 0.25 µg/mL | < 0.25 µg/mL | 8 µg/mL (≈ 15 µM) | 0.5 µg/mL (≈ 0.941 µM) | 4 µg/mL (≈ 7.52 µM) | < 0.25 µg/mL | < 0.25 µg/mL | 8 µg/mL (≈ 15 µM) | ≤ 0.5 µg/mL | < 0.25 µg/mL
